Test results reported in patent publication US20120029187A1, “HALOALKYLSULFONANILIDE DERIVATIVE” (Nissan Chemical Industries, Ltd., priority 2009, published 2012).

What was measured:
Assay type in all cases: in vivo
barnyardgrass [1] = assay: Test Example 1: herbicidal effects in preemergence treatment under submerged conditions; settings: dose 2.52 g/a
Summary of the method: (§1)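 Scoring 0 (<5% mortality) to 5 (≥90%) was done three weeks after preemergence application to the water surface of submerged (4 cm) alluvial soil, doses given as g per are. Weeds were seeded and 2.5-leaf rice transplanted on the treatment day; greenhouse at 25–30 °C.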

bulrush [2] = assay: as above; settings: dose 2.52 g/a
Summary of the method: as §1

ducksalad [3] = assay: as above; settings: dose 2.52 g/a
Summary of the method: as §1

transplanted rice = assay: Test Example 1: preemergence treatment under submerged conditions, effect on crop; settings: dose 2.52 g/a
Summary of the method: as §1

barnyardgrass [4] = assay: Test Example 2: herbicidal effects during the vegetation period under submerged conditions; settings: treatment during the vegetation period under submerged conditions; dose 2.52 g/a
Summary of the method: (§2)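 Barnyardgrass, bulrush and ducksalad were co-sown in alluvial soil flooded to 4 cm and grown in a greenhouse at 25 to 30° C. At the 1- or 2-leaf stage, water-diluted emulsifiable concentrates went onto the water surface at set doses (g/a). Herbicidal effect was scored three weeks later on a graded scale.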

bulrush [5] = assay: as above; settings: treatment during the vegetation period under submerged conditions; dose 2.52 g/a
Summary of the method: as §2

ducksalad [6] = assay: as above; settings: treatment during the vegetation period under submerged conditions; dose 2.52 g/a
Summary of the method: as §2

Italian ryegrass [7] = assay: Test Example 3: herbicidal effects in soil treatment; settings: dose 3.2 g/a
Summary of the method: (§3)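 Seeds were sown in sterilized diluvial soil and covered with about 1.5 cm of soil. Compounds, formulated as emulsifiable concentrates and diluted with water, were sprayed evenly over the soil surface at set doses in g/a. Herbicidal effect was scored on a rating scale three weeks later.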

barnyardgrass [8] = assay: as above; settings: dose 3.2 g/a
Summary of the method: as §3

beadstraw [9] = assay: as above; settings: dose 3.2 g/a
Summary of the method: as §3

common chickweed [10] = assay: as above; settings: dose 3.2 g/a
Summary of the method: as §3

common lambsquater [11] = assay: as above; settings: dose 3.2 g/a
Summary of the method: as §3

common ragweed [12] = assay: as above; settings: dose 3.2 g/a
Summary of the method: as §3

giant foxtail [13] = assay: as above; settings: dose 3.2 g/a
Summary of the method: as §3

large crabgrass [14] = assay: as above; settings: dose 3.2 g/a
Summary of the method: as §3

posumbu knotweed [15] = assay: as above; settings: dose 3.2 g/a
Summary of the method: as §3

redroot pigweed [16] = assay: as above; settings: dose 3.2 g/a
Summary of the method: as §3

velvetleaf [17] = assay: as above; settings: dose 3.2 g/a
Summary of the method: as §3

water foxtail [18] = assay: as above; settings: dose 3.2 g/a
Summary of the method: as §3

wild oat [19] = assay: as above; settings: dose 3.2 g/a
Summary of the method: as §3

Italian ryegrass [20] = assay: Test Example 4: herbicidal effect in foliage treatment; settings: dose 3.2 g/a, three weeks after the application
Summary of the method: (§4)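 Seeds sown in sterilized diluvial soil under ~1.5 cm soil cover and grown 14 days in a greenhouse at 25 to 30° C. Emulsifiable concentrates diluted with water were then sprayed uniformly on foliage at predetermined doses (g/a). Herbicidal effect was scored three weeks after application on a graded evaluation scale.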

barnyardgrass [21] = assay: as above; settings: dose 3.2 g/a, three weeks after the application
Summary of the method: as §4

beadstraw [22] = assay: as above; settings: dose 3.2 g/a, three weeks after the application
Summary of the method: as §4

common chickweed [23] = assay: as above; settings: dose 3.2 g/a, three weeks after the application
Summary of the method: as §4

common lambsquater [24] = assay: as above; settings: dose 3.2 g/a, three weeks after the application
Summary of the method: as §4

common ragweed [25] = assay: as above; settings: dose 3.2 g/a, three weeks after the application
Summary of the method: as §4

giant foxtail [26] = assay: as above; settings: dose 3.2 g/a, three weeks after the application
Summary of the method: as §4

large crabgrass [27] = assay: as above; settings: dose 3.2 g/a, three weeks after the application
Summary of the method: as §4

posumbu knotweed [28] = assay: as above; settings: dose 3.2 g/a, three weeks after the application
Summary of the method: as §4

redroot pigweed [29] = assay: as above; settings: dose 3.2 g/a, three weeks after the application
Summary of the method: as §4

velvetleaf [30] = assay: as above; settings: dose 3.2 g/a, three weeks after the application
Summary of the method: as §4

water foxtail [31] = assay: as above; settings: dose 3.2 g/a, three weeks after the application
Summary of the method: as §4

wild oat [32] = assay: as above; settings: dose 3.2 g/a, three weeks after the application
Summary of the method: as §4

Structure (SMILES) | A: barnyardgrass, herbicidal effect (evaluation scale 0-5) (barnyardgrass [1]) | B: bulrush, herbicidal effect (evaluation scale 0-5) (bulrush [2]) | C: ducksalad, herbicidal effect (evaluation scale 0-5) (ducksalad [3]) | a: transplanted rice, effect on crop (evaluation scale 0-5) (transplanted rice) | A: barnyardgrass, herbicidal effect (evaluation scale 0-5) (barnyardgrass [4]) | B: bulrush, herbicidal effect (evaluation scale 0-5) (bulrush [5]) | C: ducksalad, herbicidal effect (evaluation scale 0-5) (ducksalad [6]) | herbicidal effect, H: Italian ryegrass (Italian ryegrass [7]) | herbicidal effect, A: barnyardgrass (barnyardgrass [8]) | herbicidal effect, O: beadstraw (beadstraw [9]) | herbicidal effect, N: common chickweed (common chickweed [10]) | herbicidal effect, L: common lambsquater (common lambsquater [11]) | herbicidal effect, J: common ragweed (common ragweed [12]) | herbicidal effect, E: giant foxtail (giant foxtail [13]) | herbicidal effect, D: large crabgrass (large crabgrass [14]) | herbicidal effect, M: posumbu knotweed (posumbu knotweed [15]) | herbicidal effect, K: redroot pigweed (redroot pigweed [16]) | herbicidal effect, I: velvetleaf (velvetleaf [17]) | herbicidal effect, G: water foxtail (water foxtail [18]) | herbicidal effect, F: wild oat (wild oat [19]) | other results
CN1COCN(Cc2ccccc2N(C(=O)OCCCl)S(=O)(=O)C(F)(F)F)C1=O [IV-3] | 5 (mortality of 90% or above (nearly complete death)) | 5 (mortality of 90% or above (nearly complete death)) | 5 (mortality of 90% or above (nearly complete death)) | 0 (mortality of less than 5% (almost ineffective)) | 5 (mortality of 90% or above (nearly complete death)) | 5 (mortality of 90% or above (nearly complete death)) | 4 (mortality of at least 70% and less than 90%) | 0 (mortality of less than 5% (almost ineffective)) | 5 (mortality of 90% or above (nearly complete death)) | 0 (mortality of less than 5% (almost ineffective)) | 0 (mortality of less than 5% (almost ineffective)) | 0 (mortality of less than 5% (almost ineffective)) | 0 (mortality of less than 5% (almost ineffective)) | 3 (mortality of at least 40% and less than 70%) | 4 (mortality of at least 70% and less than 90%) | 0 (mortality of less than 5% (almost ineffective)) | 0 (mortality of less than 5% (almost ineffective)) | 5 (mortality of 90% or above (nearly complete death)) | 5 (mortality of 90% or above (nearly complete death)) | 0 (mortality of less than 5% (almost ineffective)) | H: Italian ryegrass, herbicidal effect (Italian ryegrass [20]): 1 (mortality of at least 5% and less than 20%); A: barnyardgrass, herbicidal effect (barnyardgrass [21]): 4 (mortality of at least 70% and less than 90%); O: beadstraw, herbicidal effect (beadstraw [22]): 0 (mortality of less than 5% (almost ineffective)); N: common chickweed, herbicidal effect (common chickweed [23]): 5 (mortality of 90% or above (nearly complete death)); L: common lambsquater, herbicidal effect (common lambsquater [24]): 0 (mortality of less than 5% (almost ineffective)); J: common ragweed, herbicidal effect (common ragweed [25]): 1 (mortality of at least 5% and less than 20%); E: giant foxtail, herbicidal effect (giant foxtail [26]): 3 (mortality of at least 40% and less than 70%); D: large crabgrass, herbicidal effect (large crabgrass [27]): 4 (mortality of at least 70% and less than 90%); M: posumbu knotweed, herbicidal effect (posumbu knotweed [28]): 0 (mortality of less than 5% (almost ineffective)); K: redroot pigweed, herbicidal effect (redroot pigweed [29]): 0 (mortality of less than 5% (almost ineffective)); I: velvetleaf, herbicidal effect (velvetleaf [30]): 3 (mortality of at least 40% and less than 70%); G: water foxtail, herbicidal effect (water foxtail [31]): 5 (mortality of 90% or above (nearly complete death)); F: wild oat, herbicidal effect (wild oat [32]): 0 (mortality of less than 5% (almost ineffective))
CC(C)COC(=O)N(c1ccccc1CN1COCN(C)C1=O)S(=O)(=O)C(F)(F)F [IV-4] | 5 (mortality of 90% or above (nearly complete death)) | 5 (mortality of 90% or above (nearly complete death)) | 4 (mortality of at least 70% and less than 90%) | 0 (mortality of less than 5% (almost ineffective)) | 5 (mortality of 90% or above (nearly complete death)) | 5 (mortality of 90% or above (nearly complete death)) | 5 (mortality of 90% or above (nearly complete death)) | 0 (mortality of less than 5% (almost ineffective)) | 4 (mortality of at least 70% and less than 90%) | 0 (mortality of less than 5% (almost ineffective)) | 0 (mortality of less than 5% (almost ineffective)) | 0 (mortality of less than 5% (almost ineffective)) | 0 (mortality of less than 5% (almost ineffective)) | 3 (mortality of at least 40% and less than 70%) | 4 (mortality of at least 70% and less than 90%) | 0 (mortality of less than 5% (almost ineffective)) | 0 (mortality of less than 5% (almost ineffective)) | 0 (mortality of less than 5% (almost ineffective)) | 4 (mortality of at least 70% and less than 90%) | 0 (mortality of less than 5% (almost ineffective)) | H: Italian ryegrass, herbicidal effect (Italian ryegrass [20]): 1 (mortality of at least 5% and less than 20%); A: barnyardgrass, herbicidal effect (barnyardgrass [21]): 4 (mortality of at least 70% and less than 90%); O: beadstraw, herbicidal effect (beadstraw [22]): 0 (mortality of less than 5% (almost ineffective)); N: common chickweed, herbicidal effect (common chickweed [23]): 3 (mortality of at least 40% and less than 70%); L: common lambsquater, herbicidal effect (common lambsquater [24]): 0 (mortality of less than 5% (almost ineffective)); J: common ragweed, herbicidal effect (common ragweed [25]): 0 (mortality of less than 5% (almost ineffective)); E: giant foxtail, herbicidal effect (giant foxtail [26]): 3 (mortality of at least 40% and less than 70%); D: large crabgrass, herbicidal effect (large crabgrass [27]): 3 (mortality of at least 40% and less than 70%); M: posumbu knotweed, herbicidal effect (posumbu knotweed [28]): 0 (mortality of less than 5% (almost ineffective)); K: redroot pigweed, herbicidal effect (redroot pigweed [29]): 0 (mortality of less than 5% (almost ineffective)); I: velvetleaf, herbicidal effect (velvetleaf [30]): 3 (mortality of at least 40% and less than 70%); G: water foxtail, herbicidal effect (water foxtail [31]): 4 (mortality of at least 70% and less than 90%); F: wild oat, herbicidal effect (wild oat [32]): 0 (mortality of less than 5% (almost ineffective))
